{"source": "ChEMBL document CHEMBL1165891", "about": "“Synthesis and evaluation of novel chromone analogs for their inhibitory activity against interleukin-5” (Eur J Med Chem, 2010)", "key": {"[1]": {"assay": "Antiinflammatory activity against mouse Y16 cells assessed as inhibition of IL5 production", "assay_type": "functional, cell-based"}, "[2]": {"assay": "Antiinflammatory activity against mouse Y16 cells assessed as inhibition of IL5 production at 30 uM", "assay_type": "functional"}, "[3]": {"assay": "Antiinflammatory activity against mouse Y16 cells assessed as inhibition of IL5 production at 50 uM", "assay_type": "functional"}}}
{"smiles": "CC(C)COc1cccc2occ(C(=O)O)c(=O)c12", "values": [{"measurement": "IC50", "setting": "[1]", "result": "> 30", "unit": "µM"}, {"measurement": "inhibition at 30 µM", "setting": "[2]", "result": 33, "unit": "%"}]}
{"smiles": "COc1cc(Cc2coc3cccc(OCC4CCCCC4)c3c2=O)cc(OC)c1OC", "values": [{"measurement": "IC50", "setting": "[1]", "result": 12.5, "unit": "µM"}, {"measurement": "inhibition at 30 µM", "setting": "[2]", "result": 85, "unit": "%"}]}
{"smiles": "CC(C)COc1cccc2occ(/C=N/O)c(=O)c12", "values": [{"measurement": "IC50", "setting": "[1]", "result": "> 30", "unit": "µM"}, {"measurement": "inhibition at 30 µM", "setting": "[2]", "result": "< 10", "unit": "%"}]}
{"smiles": "CC(C)COc1cccc2occ(Cc3ccc(C(=O)O)cc3)c(=O)c12", "values": [{"measurement": "IC50", "setting": "[1]", "result": 11.4, "unit": "µM"}, {"measurement": "inhibition at 30 µM", "setting": "[2]", "result": 73, "unit": "%"}]}
{"smiles": "O=c1c(/C=N/O)coc2cccc(OCC3CCCCC3)c12", "values": [{"measurement": "IC50", "setting": "[1]", "result": "> 30", "unit": "µM"}, {"measurement": "inhibition at 30 µM", "setting": "[2]", "result": "< 10", "unit": "%"}]}
{"smiles": "O=c1c(-c2ccc(O[C@@H]3O[C@H](CO)[C@@H](O)[C@H](O)[C@H]3O)cc2)coc2cc(O)cc(O)c12", "note": "[SOPHORICOSIDE]", "values": [{"measurement": "IC50", "setting": "[1]", "result": 10.3, "unit": "µM"}, {"measurement": "inhibition at 50 µM", "setting": "[3]", "result": 93.8, "unit": "%"}]}
{"smiles": "Cc1ccc(Cc2coc3cccc(OCCC(C)C)c3c2=O)cc1", "values": [{"measurement": "IC50", "setting": "[1]", "result": "> 30", "unit": "µM"}, {"measurement": "inhibition at 30 µM", "setting": "[2]", "result": 35, "unit": "%"}]}
{"smiles": "O=C(O)CCc1coc2cccc(OCC3CCCCC3)c2c1=O", "values": [{"measurement": "IC50", "setting": "[1]", "result": "> 30", "unit": "µM"}, {"measurement": "inhibition at 30 µM", "setting": "[2]", "result": "< 10", "unit": "%"}]}
{"smiles": "O=C(O)c1coc2cccc(OCC3CCCCC3)c2c1=O", "values": [{"measurement": "IC50", "setting": "[1]", "result": "> 30", "unit": "µM"}, {"measurement": "inhibition at 30 µM", "setting": "[2]", "result": 43, "unit": "%"}]}
{"smiles": "NS(=O)(=O)c1ccc(Cc2coc3cccc(OCC4CCCCC4)c3c2=O)cc1", "values": [{"measurement": "IC50", "setting": "[1]", "result": "> 30", "unit": "µM"}, {"measurement": "inhibition at 30 µM", "setting": "[2]", "result": 31, "unit": "%"}]}
{"smiles": "O=c1c(CCl)coc2cccc(OCC3CCCCC3)c12", "values": [{"measurement": "IC50", "setting": "[1]", "result": "> 30", "unit": "µM"}, {"measurement": "inhibition at 30 µM", "setting": "[2]", "result": 45, "unit": "%"}]}
{"smiles": "CC(C)COc1cccc2occ(CCl)c(=O)c12", "values": [{"measurement": "IC50", "setting": "[1]", "result": "> 30", "unit": "µM"}, {"measurement": "inhibition at 30 µM", "setting": "[2]", "result": 43, "unit": "%"}]}
{"smiles": "CC(C)CCOc1cccc2occ(Cc3ccc(O)cc3)c(=O)c12", "values": [{"measurement": "IC50", "setting": "[1]", "result": "> 30", "unit": "µM"}, {"measurement": "inhibition at 30 µM", "setting": "[2]", "result": 36, "unit": "%"}]}
{"smiles": "O=c1c(Cc2ccc(O)cc2)coc2cccc(OCC3CCCCC3)c12", "values": [{"measurement": "IC50", "setting": "[1]", "result": "< 3", "unit": "µM"}, {"measurement": "inhibition at 30 µM", "setting": "[2]", "result": 98, "unit": "%"}]}
{"smiles": "O=c1c(Cc2ccc(C(F)(F)F)cc2)coc2cccc(OCC3CCCCC3)c12", "values": [{"measurement": "IC50", "setting": "[1]", "result": "> 30", "unit": "µM"}, {"measurement": "inhibition at 30 µM", "setting": "[2]", "result": 47, "unit": "%"}]}
{"smiles": "O=c1c(Cc2ccccc2)coc2cccc(OCC3CCCCC3)c12", "values": [{"measurement": "IC50", "setting": "[1]", "result": 22.9, "unit": "µM"}, {"measurement": "inhibition at 30 µM", "setting": "[2]", "result": 56, "unit": "%"}]}
{"smiles": "CC(C)COc1cccc2occ(CCC(=O)O)c(=O)c12", "values": [{"measurement": "IC50", "setting": "[1]", "result": "> 30", "unit": "µM"}, {"measurement": "inhibition at 30 µM", "setting": "[2]", "result": "< 10", "unit": "%"}]}
{"smiles": "O=c1c(Cc2ccc(Cl)cc2)coc2cccc(OCC3CCCCC3)c12", "values": [{"measurement": "IC50", "setting": "[1]", "result": "> 30", "unit": "µM"}, {"measurement": "inhibition at 30 µM", "setting": "[2]", "result": 36, "unit": "%"}]}
{"smiles": "CCc1ccc(Cc2coc3cccc(OCC4CCCCC4)c3c2=O)cc1", "values": [{"measurement": "IC50", "setting": "[1]", "result": "> 30", "unit": "µM"}, {"measurement": "inhibition at 30 µM", "setting": "[2]", "result": 45, "unit": "%"}]}
{"smiles": "O=C(O)c1ccc(Cc2coc3cccc(OCC4CCCCC4)c3c2=O)cc1", "values": [{"measurement": "IC50", "setting": "[1]", "result": 12.3, "unit": "µM"}, {"measurement": "inhibition at 30 µM", "setting": "[2]", "result": 77, "unit": "%"}]}
{"smiles": "Cc1ccc(Cc2coc3cccc(OCC4CCCCC4)c3c2=O)cc1", "values": [{"measurement": "IC50", "setting": "[1]", "result": 14.8, "unit": "µM"}, {"measurement": "inhibition at 30 µM", "setting": "[2]", "result": 86, "unit": "%"}]}
{"smiles": "O=c1c(CO)coc2cccc(OCC3CCCCC3)c12", "values": [{"measurement": "IC50", "setting": "[1]", "result": 7.6, "unit": "µM"}, {"measurement": "inhibition at 30 µM", "setting": "[2]", "result": 84, "unit": "%"}]}
{"smiles": "CC(C)COc1cccc2occ(CO)c(=O)c12", "values": [{"measurement": "IC50", "setting": "[1]", "result": 21.6, "unit": "µM"}, {"measurement": "inhibition at 30 µM", "setting": "[2]", "result": 56, "unit": "%"}]}
